Measured values from PMC6934184, “Selective DNA-PKcs inhibition extends the therapeutic index of localized radiotherapy and chemotherapy” (The Journal of Clinical Investigation, 2019).

Target: T1, MUSK (Homo sapiens, UniProt O15146)
T1 construct: purchased Thermo Fisher Scientific (Life Technologies) SelectScreen
Assay: SelectScreen Z'LYTE
Format: biochemical
Method in brief: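 NU5455 was profiled across the SelectScreen Broad panel of kinase activity and binding assays. Z'LYTE reactions such as CSF1R ran at apparent Km ATP, while the Adapta CAMK1 assay used ATP listed as 10. Values are given as percent.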

T1 sequence (O15146 24-869): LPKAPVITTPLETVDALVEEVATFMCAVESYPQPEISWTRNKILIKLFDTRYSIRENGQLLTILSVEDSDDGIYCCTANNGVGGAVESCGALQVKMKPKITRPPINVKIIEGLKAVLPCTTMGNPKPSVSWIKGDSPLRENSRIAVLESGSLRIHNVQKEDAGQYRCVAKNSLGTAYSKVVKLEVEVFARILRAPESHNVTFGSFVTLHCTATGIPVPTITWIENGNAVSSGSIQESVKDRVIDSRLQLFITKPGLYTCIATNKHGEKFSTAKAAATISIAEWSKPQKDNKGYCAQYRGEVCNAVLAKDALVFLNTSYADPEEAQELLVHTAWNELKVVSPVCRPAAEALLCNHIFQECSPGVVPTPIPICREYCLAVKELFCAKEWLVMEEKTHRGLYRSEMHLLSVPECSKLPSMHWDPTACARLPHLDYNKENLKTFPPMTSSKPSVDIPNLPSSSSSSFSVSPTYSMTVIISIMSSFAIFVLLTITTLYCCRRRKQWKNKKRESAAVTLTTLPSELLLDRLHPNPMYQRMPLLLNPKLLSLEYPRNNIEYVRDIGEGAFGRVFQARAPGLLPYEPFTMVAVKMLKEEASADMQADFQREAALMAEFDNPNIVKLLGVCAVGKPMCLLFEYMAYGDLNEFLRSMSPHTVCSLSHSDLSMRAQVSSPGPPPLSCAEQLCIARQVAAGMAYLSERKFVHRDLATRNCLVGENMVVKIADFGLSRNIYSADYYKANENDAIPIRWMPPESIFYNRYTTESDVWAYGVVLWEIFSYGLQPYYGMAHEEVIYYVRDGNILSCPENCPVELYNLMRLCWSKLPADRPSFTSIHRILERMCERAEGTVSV

Question: Which inhibition at 1 µM does the source give for `CN(C(=O)CN1CCOCC1)c1ccc2sc3c(-c4cccc5c(=O)cc(N6CC7CCC(C6)O7)oc45)cccc3c2c1` [NU5455] here?
Answer: 10.3%
